Assay results reported in article PMC4705464, “Sensillar expression and responses of olfactory receptors reveal different peripheral coding in two Helicoverpa species using the same pheromone components” (Scientific Reports, 2016).

Assays:
Test in all cases: two-electrode voltage clamp, Xenopus oocytes
Format in all cases: cell-based
HassOR16/Orco = target: T1, HassOR16/Orco (Helicoverpa assulta, UniProt C6K7C1); conditions: agonist; with Orco
T1 construct: full ORF in pT7Ts, cRNA co-expressed with Orco in Xenopus oocytes; with Odorant receptor coreceptor
T1 sequence (C6K7C1 1-422): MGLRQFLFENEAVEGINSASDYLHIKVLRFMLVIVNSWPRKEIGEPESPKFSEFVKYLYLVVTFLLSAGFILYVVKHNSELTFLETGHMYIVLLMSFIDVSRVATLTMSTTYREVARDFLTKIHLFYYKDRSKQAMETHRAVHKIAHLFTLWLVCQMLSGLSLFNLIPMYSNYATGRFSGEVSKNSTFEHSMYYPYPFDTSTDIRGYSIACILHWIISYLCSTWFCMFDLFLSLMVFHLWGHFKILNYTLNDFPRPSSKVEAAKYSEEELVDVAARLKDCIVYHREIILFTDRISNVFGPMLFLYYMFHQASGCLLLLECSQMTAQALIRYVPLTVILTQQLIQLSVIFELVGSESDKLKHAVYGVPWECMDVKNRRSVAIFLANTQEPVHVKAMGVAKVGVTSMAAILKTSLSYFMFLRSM
T1 sequence (A7UGE1 1-473 partner): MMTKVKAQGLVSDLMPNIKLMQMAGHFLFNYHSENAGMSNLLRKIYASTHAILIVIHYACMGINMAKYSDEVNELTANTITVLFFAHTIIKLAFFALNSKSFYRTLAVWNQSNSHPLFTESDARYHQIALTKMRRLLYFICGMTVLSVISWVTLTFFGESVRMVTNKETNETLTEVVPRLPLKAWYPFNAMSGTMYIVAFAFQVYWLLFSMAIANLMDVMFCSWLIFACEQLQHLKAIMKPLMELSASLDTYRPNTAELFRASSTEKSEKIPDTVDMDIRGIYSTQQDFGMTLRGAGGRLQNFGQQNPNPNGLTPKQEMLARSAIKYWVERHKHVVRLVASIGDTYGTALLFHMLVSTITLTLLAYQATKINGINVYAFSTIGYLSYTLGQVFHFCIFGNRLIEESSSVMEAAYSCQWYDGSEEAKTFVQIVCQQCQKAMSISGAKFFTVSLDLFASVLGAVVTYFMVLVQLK

HarmOR14b/HarmOrco = target: T2, HarmOR14b/HarmOrco (Helicoverpa armigera, UniProt R4JUU3); conditions: agonist; 10^-4 mol/L; with HarmOrco
T2 construct: gene OR14b; full ORF in pT7Ts, cRNA co-expressed with HarmOrco in Xenopus oocytes; alignment of OR14b orthologues over 440 residues; with Odorant receptor coreceptor
T2 sequence (R4JUU3 1-440): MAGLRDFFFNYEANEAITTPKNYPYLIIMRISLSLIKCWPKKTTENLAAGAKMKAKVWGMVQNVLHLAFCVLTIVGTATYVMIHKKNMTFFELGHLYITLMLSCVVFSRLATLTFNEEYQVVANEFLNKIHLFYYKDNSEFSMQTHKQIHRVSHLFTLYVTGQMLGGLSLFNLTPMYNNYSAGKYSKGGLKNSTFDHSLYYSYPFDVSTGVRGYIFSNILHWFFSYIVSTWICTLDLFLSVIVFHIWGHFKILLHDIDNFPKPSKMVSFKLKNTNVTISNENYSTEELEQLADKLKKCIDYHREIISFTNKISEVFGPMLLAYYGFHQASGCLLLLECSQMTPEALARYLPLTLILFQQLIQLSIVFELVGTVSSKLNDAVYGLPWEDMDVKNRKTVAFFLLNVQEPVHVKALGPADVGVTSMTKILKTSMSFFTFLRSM

HassOR6/Orco = target: T3, HassOR6/Orco (Helicoverpa assulta, UniProt R4JLZ7); conditions: agonist, main ligand; with Orco
T3 construct: gene OR6; full ORF in pT7Ts, cRNA co-expressed with Orco in Xenopus oocytes; with Odorant receptor coreceptor
T3 sequence (R4JLZ7 1-425): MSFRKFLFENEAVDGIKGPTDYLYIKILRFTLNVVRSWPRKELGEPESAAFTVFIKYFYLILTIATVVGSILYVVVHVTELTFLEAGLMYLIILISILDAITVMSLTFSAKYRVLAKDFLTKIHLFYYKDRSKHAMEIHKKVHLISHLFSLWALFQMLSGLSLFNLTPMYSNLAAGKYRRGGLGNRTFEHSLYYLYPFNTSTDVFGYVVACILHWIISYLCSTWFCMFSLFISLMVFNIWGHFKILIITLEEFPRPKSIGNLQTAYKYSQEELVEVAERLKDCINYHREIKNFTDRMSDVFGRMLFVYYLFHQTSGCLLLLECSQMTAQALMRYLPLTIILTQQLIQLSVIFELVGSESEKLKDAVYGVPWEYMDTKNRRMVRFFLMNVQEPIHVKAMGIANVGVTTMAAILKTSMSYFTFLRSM
T3 sequence (A7UGE1 1-473 partner): T1 sequence (A7UGE1 1-473 partner)

HassOR13/Orco = target: T4, HassOR13/Orco (Helicoverpa assulta, UniProt A0A0B4ZYC6); conditions: agonist; with Orco
T4 construct: gene OR13; full ORF in pT7Ts, cRNA co-expressed with Orco in Xenopus oocytes; with Odorant receptor coreceptor
T4 sequence (A0A0B4ZYC6 1-425): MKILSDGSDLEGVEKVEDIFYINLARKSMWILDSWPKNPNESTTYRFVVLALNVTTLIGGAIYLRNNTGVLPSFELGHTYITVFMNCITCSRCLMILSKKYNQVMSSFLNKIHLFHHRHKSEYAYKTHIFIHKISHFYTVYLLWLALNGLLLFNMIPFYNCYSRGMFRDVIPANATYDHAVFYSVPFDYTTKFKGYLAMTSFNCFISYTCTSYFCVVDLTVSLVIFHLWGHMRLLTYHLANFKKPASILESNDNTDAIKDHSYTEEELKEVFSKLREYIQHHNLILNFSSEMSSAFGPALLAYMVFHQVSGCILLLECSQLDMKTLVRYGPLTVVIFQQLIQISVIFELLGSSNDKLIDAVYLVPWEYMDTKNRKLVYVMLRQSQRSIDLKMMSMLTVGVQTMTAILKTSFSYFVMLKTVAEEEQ
T4 sequence (A7UGE1 1-473 partner): T1 sequence (A7UGE1 1-473 partner)

For `CCCC/C=C\CCCCCCCC=O` [Z9-14:Ald], the current response (HassOR16/Orco) was “HassOR13/Orco and HassOR16/Orco were narrowly tuned to Z11-16:Ald and Z9-14:Ald respectively” and the inward current response (HarmOR14b/HarmOrco) was “this receptor, when expressed in Xenopus oocytes, responds specifically to Z9-14:Ald”.
In the case of `CCCCCC/C=C\CCCCCCCCO` [Z9-16:OH], the current response (HassOR6/Orco) is reported as “HassOR6/Orco responded mainly to Z9-16:OH”.
With `CCCC/C=C\CCCCCCCCCC=O` [Z11-16:Ald, (Z)-11-hexadecenal] the current response (HassOR13/Orco) was “HassOR13/Orco and HassOR16/Orco were narrowly tuned to Z11-16:Ald and Z9-14:Ald respectively”.
